The values below come from PMC12830207, “Targeting the protein–protein interaction between the CDC37 cochaperone and client kinases by an allosteric RAF dimer breaker” (The Journal of Biological Chemistry, 2025).

The EC50 is the concentration giving half of the maximal effect.

Series [1] deals with HSP90. To be noted: cited from earlier work. The text has this:
However, this approach often requires high dosages, making cells more susceptible to thermal damage and inducing HSR1 expression ([10]). […] ATP competitive inhibitors for RAF kinase encou ...

The subject of the next series is HCT116 cells. Description: WST-1 cell viability assay, HCT116. To be noted: HCT116, no braftide, 24 h, WST-1; read-out: EC50 of 17-AAG alone, HCT116. In kind it is cell-based.
The subject of series [2] is MAPK proteins (BRAF, CRAF, MEK, pMEK, ERK, pERK). Description: Immunoblot of MAPK proteins in HCT116 cells. The series is classed as cell-based. As to the method: (§1) Western blot band densities were quantified with ImageJ software (National Institutes of Health) and normalized to the indicated loading control. Statistical significance was determined through one-/two-way ANOVA, where indicated, followed by Tukey's honest significant difference post hoc test with corresponding p values (∗p < 0.05, ∗∗p < 0.002, ∗∗∗p < 0.0002, and ∗∗∗∗p < 0.0001). All graph bars represent the mean ± SD with individual data points per biological replicate with corresponding p values.
A general note: A western blot detects proteins with antibodies after separation by electrophoresis.

In the next series the test system is BRAF–CDC37 interaction. Description: NanoBiT luminescence CDC37–RAF interaction reporter assay, BRAF^SmBiT–CDC37^LgBiT. To be noted: HEK293, 10 µM vemurafenib, 4 hrs, Fig. S8. The series is classed as cell-based, human (HEK293). The text has this: NanoBiT cytomegalovirus MCS BiBiT vector, which contains a BRAF N terminal fused with LgBiT and CRAF N terminal fused with SmBiT, was purchased from Promega. CDC37 LgBiT and CRAF SmBiT was generated using the standard Gibson Assembly (NEB HiFi Assembly) using NanoBiT BiBiT as the vector and following primers: 5′ […] 3′, 5′ […] 3′, 5′ […] 3′, 5′ […] 3′, and CDC37 LgBiT and BRAF SmBiT was generated using the standard Gibson Assembly using NanoBiT BiBiT as the vector and following primers: 5′ […] 3′, 5′ […] 3′, 5′ […] 3′, 5′ […] 3′. Primers were designed to introduce H20A, N22A, I23A triple mutation within the CDC37 FLAG tag and for NanoBiT construct CDC37(HNI/A) LgBit and BRAF SmBiT. Primers were designed to introduce the desired substitutions. The forward primer sequence was 5′ gccgcc[…] 3′, and the reverse primer sequence was 5′ gggggc[…] 3′. Site-directed mutagenesis was carried out using the Q5 Site-Directed Mutagenesis Kit (NEB; E0554) following the manufacturer's protocol.
Twenty-four hours post-transfection, cells were trypsinized, pelleted, resuspended in OptiMEM + 4% fetal bovine serum, and reseeded onto a 96-well plate at 5(10)^4 cells per well and then incubated at 37 °C overnight. Cells were pretreated with 1 μM bortezomib for 5 h and then braftide for 4 h at 0 and 25 μM. After treatment, 10 μM furimazine substrate was added to each well, and luminescence readings were taken at 470 to 480 nm using a CLARIOstar plate reader. Statistical significance was determined through a paired t test where indicated, followed by Tukey's honest significant difference post hoc test with corresponding p values (∗p < 0.05, ∗∗p < 0.01, and ∗∗∗p < 0.001). All graph bars represent the mean ± SD with individual data points per biological replicate with corresponding p values.
(In a reporter assay the amount or activity of a reporter protein is the signal.)

A further series has as its system ERK. To be noted: cited from earlier work. The text has this: The RAF kinase family, comprising ARAF, BRAF, and CRAF, is one of the well-studied clients of CDC37. RAF kinase is a core component of the mitogen-activated protein kinase (MAPK) (RAS–RAF–mitogen-activated protein kinase kinase [MEK]–extracellular signal–regulated kinase [ERK]) pathway, governing cell proliferation, survival, senescence, differentiation, and migration ([18]). […] While ATP-competitive inhibitors like vemurafenib, dabrafenib, and encorafenib ...

The next series concerns HSP90–CDC37 complex. To be noted: cited from earlier work. The text has this:
Unlike conventional HSP90 inhibitors, braftide preserves HSP90 activity while disrupting CDC37–client interactions, minimizing cytotoxicity and enhancing therapeutic precision. Braftide's ability to destabilize RAF through CDC37 inhibition may offer an alternative to high-dose HSP90 inhibitors, mitigating their associated side effects. […] While most HSP90–CDC37 inhibitors focus on HSP90 ATP-competitive inhibition ([6]), emerging ...

Another series has as its system BRAF. Nature of the series: Photo-crosslinking and streptavidin pull-down, BRAF. The series is classed as binding, human (HEK293). To be noted: 10 μM peptide, lysate of HEK293 with CDC37-FLAG/BRAF-V5, 4 h, 4 °C, UV 1 h, streptavidin. On the procedure: (§2) Transfected HEK293 cells were treated with the indicated treatments and harvested in cold PBS. The cell pellets were lysed in modified RIPA buffer (50 mM Hepes [pH 7.4], 150 mM sodium chloride, 0.1% NP-40 [IGEPAL630], 1 mM EDTA, 5% glycerol, 1 mM PMSF, 20 mM β-glycerophosphate, 2.5 mM sodium pyrophosphate, and 1 protease inhibitor tablet) and incubated with rotation for 2 h, 4 °C. Cell lysates were then incubated with resin (FLAG-M2 magnetic, Sigma [M8823] or streptavidin, Pierce [88816]) for 2 h to bind the tagged BRAF–CRAF or BTN–braftide-crosslinked proteins. The samples were washed five times in a modified RIPA buffer and quenched in loading dye (BTN IP elution was supplemented with 20 mM biotin in loading dye) and heated at 95 °C, 5 min. Samples were analyzed via immunoblot.
(§3) HEK293 cells were cotransfected with CDC37 (FLAG-tagged) and BRAF (V5-tagged). Cells were harvested in cold PBS, and pellets were lysed in modified RIPA buffer with rotation for 2 h, 4 °C. Cell lysate (1 mg) was incubated with 0 or 10 μM BTN–braftide/JAK2, with rotation for 4 h, at 4 °C. Samples were then exposed to […] UV light for 1 h over ice. After UV treatment, samples were incubated with Pierce Streptavidin magnetic beads (catalog no.: 88816) for 17 h at 4 °C, to bind BTN–braftide. […] Samples were analyzed via immunoblot.

Another series has as its system MAPK proteins / pERK. Description: Immunoblot of protein degradation and pERK with control peptide in HEK293. The series is classed as cell-based, human (HEK293). To be noted: HEK293 cotransfected with CDC37 and RAF (Fig. S2A). As to the method: as §1
In series [3] the test system is HSP90. Description: Photo-crosslinking and streptavidin pull-down, HSP90. In kind it is binding, human (HEK293). To be noted: 10 μM peptide, HEK293 lysate, 4 h, 4 °C, UV 1 h, streptavidin. As to the method: as §2, §3
The test system of a further series is CDC37. Nature of the series: Photo-crosslinking and streptavidin pull-down, CDC37. To be noted: 10 μM peptide, lysate of HEK293 with CDC37-FLAG/BRAF-V5, 4 h, 4 °C, UV 1 h, streptavidin. In kind it is binding, human (HEK293). On the procedure: as §2, §3
In another series the test system is CRAF. Nature of the series: Photo-crosslinking and streptavidin pull-down, endogenous CRAF. In kind it is binding, human (HEK293). To be noted: 10 μM peptide, HEK293 lysate, 4 h, 4 °C, UV 1 h, streptavidin. As to the method: as §2, §3
A further series has as its system AKT1. Nature of the series: Photo-crosslinking and streptavidin pull-down, AKT1. In kind it is binding, human (HEK293). To be noted: 10 μM peptide, HEK293 lysate, 4 h, 4 °C, UV 1 h, streptavidin. On the procedure:
as §2, §3

The target in series [4] is HSP90 (endogenous, HEK293), P07900. Nature of the series: co-immunoprecipitation (IP: FLAG), immunoblot band quantification. To be noted: chain shown with the change, representative blot.

Turning to `C=CCNC1=C2C[C@@H](C)C[C@H](OC)[C@H](O)[C@@H](C)/C=C(\C)[C@H](OC(N)=O)[C@@H](OC)/C=C\C=C(/C)C(=O)NC(=CC1=O)C2=O` [17-AAG, 17-N-allylamino-17-demethoxygeldanamycin, reference compound], the “cytotoxicity in clinical trials” value in the series on HSP90 [1] was “its clinical trials faced challenges because of high cytotoxicity”. The concentration giving a half-maximal response (EC50) in the series with HCT116 cells is above 5 µM. Also, the “CRAF degradation and MAPK signaling, combination” value in [2] (HCT116, 500 nM 17-AAG + 500 nM braftide, immunoblot, n = 3) is “significant degradation of CRAF kinase and downregulation of MAPK signaling”. Also, in series [2] (HCT116, 500 nM single agent, immunoblot), the “inhibition by monotherapy at 500 nM” value was “Neither 17-AAG nor braftide monotherapy exhibited obvious inhibition”. Moreover, in [2] (HCT116, 17-AAG alone, 16 h, immunoblot), the “concentration at which CRAF kinase level is depleted, 17-AAG monotherapy” value turned out to be 2 µM.
Take `CCCS(=O)(=O)Nc1ccc(F)c(C(=O)c2c[nH]c3ncc(-c4ccc(Cl)cc4)cc23)c1F` [Vemurafenib, reference compound]: in the series on BRAF–CDC37 interaction, the “NanoBiT BRAF–CDC37 interaction, vemurafenib” value was “disrupted the interaction between BRAF and CDC37 in the NanoBiT assay”. The “paradoxical activation of downstream ERK” value with ERK is listed as “can lead to paradoxical activation of downstream ERK under certain conditions”.
Consider `CC1=C[C@H](C)C[C@H](C)[C@H](Cc2cnco2)OC(=O)/C(C)=C\[C@H](C)C[C@H](C)[C@H](Cc2cnco2)OC1=O` [conglobatin A], for which the “dissociation of HSP90–CDC37 complex” value with HSP90–CDC37 complex is “allosterically dissociate the HSP90–CDC37 complex”.
With `CC(C)(C)c1nc(-c2cccc(NS(=O)(=O)c3c(F)cccc3F)c2F)c(-c2ccnc(N)n2)s1` [dabrafenib], the “paradoxical activation of downstream ERK” value with ERK is given as “can lead to paradoxical activation of downstream ERK under certain conditions”.
Turning to `COC(=O)N[C@@H](C)CNc1nccc(-c2cn(C(C)C)nc2-c2cc(Cl)cc(NS(C)(=O)=O)c2F)n1` [encorafenib], the “paradoxical activation of downstream ERK” value in the series with ERK is “can lead to paradoxical activation of downstream ERK under certain conditions”.
As for `C[C@@H]1O[C@@H](O[C@H]2[C@H](OC(=O)[C@]34CCC(C)(C)C[C@H]3C3=CC[C@@H]5[C@@]6(C)C[C@H](O)[C@H](O[C@@H]7O[C@H](CO)[C@@H](O)[C@H](O)[C@H]7O)C(CO)(CO)[C@@H]6CC[C@@]5(C)[C@]3(C)C[C@H]4O)OC[C@H](O)[C@@H]2O)[C@H](O)[C@H](O)[C@H]1O[C@@H]1OC[C@@H](O)[C@H](O[C@@H]2OC[C@](O)(CO)[C@H]2O)[C@H]1O` [platycodin D], the “dissociation of HSP90–CDC37 complex” value in the series on HSP90–CDC37 complex is on record as “allosterically dissociate the HSP90–CDC37 complex”.
Regarding “Biotin-GRKKRRQRRRPQ-miniPEG-SxQHDNIVKY [BTN–JAK2, biotinylated control peptide derived from the αC helix–β4 loop of the JAK2 kinase, same TAT-miniPEG fragment, reference compound]”, the “co-immunoprecipitation of BRAF with biotinylated peptide” value with BRAF is recorded as “did not coimmunoprecipitate BRAF, CDC37, or HSP90 under the same conditions”. Moreover, the “protein degradation and pERK levels with control peptide” value in the series on MAPK proteins / pERK is “did not induce protein degradation or reduce pERK levels”. Moreover, in the series with HSP90 [3], the “co-immunoprecipitation of HSP90 with biotinylated peptide” value is listed as “did not coimmunoprecipitate BRAF, CDC37, or HSP90 under the same conditions”. For the same molecule, the “co-immunoprecipitation of CDC37 with biotinylated peptide” value in the series with CDC37 was “did not coimmunoprecipitate BRAF, CDC37, or HSP90 under the same conditions”.
Consider “Biotin-GRKKRRQRRRPQ-miniPEG-TRHVNILxFM [BTN–braftide]”, for which the “co-immunoprecipitation of BRAF with biotinylated peptide” value with BRAF is “coimmunoprecipitated CDC37, BRAF, and endogenous CRAF”. Moreover, the “co-immunoprecipitation of endogenous CRAF with biotinylated peptide” value in the series on CRAF is “coimmunoprecipitated CDC37, BRAF, and endogenous CRAF”. Moreover, the “co-immunoprecipitation of AKT1 with biotinylated peptide” value with AKT1 is on record as “Neither AKT1 nor HSP90 was pulled down in this assay”. The “co-immunoprecipitation of HSP90 with biotinylated peptide” value with HSP90 [3] was “Neither AKT1 nor HSP90 was pulled down in this assay”. Further, in the series on CDC37, the “co-immunoprecipitation of CDC37 with biotinylated peptide” value is “coimmunoprecipitated CDC37, BRAF, and endogenous CRAF”.
On to “GRKKRRQRRRPQ-miniPEG-SLQHDNIVKY [TAT–JAK2, negative control peptide derived from the αC helix–β4 loop of the JAK2 kinase, reference compound]”, for which the “MAPK proteins with control peptide” value in series [2] (HCT116, 4 h, Fig. S2A) is listed as “MAPK proteins are unaffected by control peptide”.
For “GRKKRRQRRRPQ-miniPEG-THHVNILLFM [R/H peptide]”, in series [2] (HCT116, braftide^R2H, 4 h, immunoblot), the “protein degradation of BRAF, CRAF, MEK, and ERK” value was “failed to induce protein degradation of BRAF, CRAF, MEK, and ERK”. For the same molecule, the “impact on MAPK signaling” value in [2] (HCT116, braftide^R2H, 4 h, pMEK and pERK immunoblot) is listed as “had no impact on MAPK signaling in HCT116 cells”.

B1: CDC37-myc-FLAG, Q16543 H20A; N22A; I23A (protein)
chain: MVDYSVWDHIEVSDDEDETAPAADTASLFRWRHQARVERMEQFQKEKEELDRGCRECKRKVAECQRKLKELEVAEGGKAELERLQAEAQQLRKEERSWEQKLEEMRKKEKSMPWNVDTLSKDGFSKSMVNTKPEKTEEDSEEVREQKHKTFVEKYEKQIKHFGMLRRWDDSQKYLSDNVHLVCEETANYLVIWCIDLEVEEKCALMEQVAHQTIVMQFILELAKSLKVDPRACFRQFFTKIKTADRQYMEGFNDELEAFKERVRGRAKLRIEKAMKEYEEEERKKRLGPGGLDPVEVYESLPEELQKCFDVKDVQMLQDAISKMDPTDAKYHMQRCIDSGLWVPNSKASEAKEGEEAGPGDPLLEAVPKTGDEKDVSV
B1: the results for the ratio to parent in series [4] (HEK293 cells coexpressing BRAF-V5) and in [4] (HEK293 cells coexpressing CRAF-HA) were 1.01 and 0.91, respectively.
